Values of other authors as cited in patent US20250009831A1, “COMBINATION OF SCUTELLARIA EXTRACTS WITH CITRUS BERGAMIA OR CYNARA CARDUNCULUS EXTRACTS AND FORMULATIONS CONTAINING THEM” (AKHYNEX S.R.L., priority 2021, published 2025).

System: rats treated with orotic acid to induce fatty liver disease

O=C(O)[C@H]1O[C@@H](Oc2cc3oc(-c4ccccc4)cc(=O)c3c(O)c2O)[C@H](O)[C@@H](O)[C@@H]1O [baicalin]
FFA-induced lipotoxicity (rat, in vivo): had a preventive effect on FFA-induced lipotoxicity
accumulation of fats in the liver (rats treated with orotic acid): inhibited the accumulation of fats in the liver
hypertrophy of the hepatocytes (rats treated with orotic acid): attenuated hypertrophy of the hepatocytes
